# Measured values: patent US20180353461A1, “USE OF CANNABINOIDS AS CERAMIDE-GENERATING ANTICANCER AGENTS IN TUMORS OF THE HEMATOPOIETIC AND LYMPHOID TISSUES” (priority 2014, published 2018)
# Tests used:
# Format in all cases: cell-based, human
# U266 cells [1] = experiment: Western blot of signaling pathways (MAPKs, Akt) in U266 cells
# Method: (§1) Protein analyses were performed by Western blot in several sets of assays: expression pattern of CBs-receptors in MM cell lines and primary cells, and time course after treatment with cannabinoids in MM cell lines. Time-course assays were performed at 0, 2, 6, 18 and 24 hours. Anyway, obtaining cell lysates was conducted according to a protocol adapted to phosphorylation-dependent signaling, described by Gilbert et al. (2002). Briefly, 10e7 cells per condition were harvested at indicated times, washed with iced-cold PBS and lysate in isotonic lysis buffer 30 min keeping on ice. Isotonic lysis buffer contained 2% ASB-14 (CalbioChem, San Diego, Calif., USA),1% Nonidet P-40 (Ipegal®), 137 mM NaCl, 20mM Tris-HCl pH 7.5 at 4° C. (all from Sigma-Aldrich), 2 mM Na3VO4, 20 mM NaF (New England BioLabs Inc., Ipswich, Mass., USA), 2 mM DTT (AppliChem, Darmstadt, Germany), protease inhibitor cocktail (Roche Diagnostics GmbH, Mannheim, Germany), and 10 ul Nuclease Mix (Amersham GE Healthcare, Uppsala, Sweden). After lysis, samples were centrifuged at 13,000×g for 5 min at 4° C., and supernatants collected. Protein concentration in samples was determined by Pierce® Microplate BCA Protein Assay kit-Reducing Agent Compatible (Thermo Fisher Scientific). Before loading the samples in the gel, they were diluted in loading sample buffer (0.125 M Tris-HCl pH 6.8, 4% SDS, 20% glycerol, 0.02% Bromophenol Blue, 200 mM DTT) and the mixture was heated at 70° C. for 5 min in a thermoblock (LabNet International, N.J., USA).
# (§2) Samples (15-25 ug/lane) were subjected to SDS/PAGE in pre-cast polyacrylamide gels AnykD (Bio-Rad Laboratories, Hercules, CA, USA) under reducing and denaturing conditions. Electrophoretic run was performed at a constant current of 15 mA per gel in a Mini-Protean® Tetra Cell (Bio-Rad Laboratories). Once proteins were separated by electrophoresis, were transferred onto PVDF membranes using Trans-Blot® Turbo™ System (Bio-Rad Laboratories). Electrotransference was conducted at constant amperage of 1.2 mA and at up to 25 V of voltage. The blotted membranes were then blocked with 2% bovine serum albumin [(BSA), Santa Cruz Biotechnology] in Tween-Tris buffer saline (TTBS) for 30 min with gentle agitation, and incubated overnight at 4° C. with corresponding primary antibody in TTBS. After twice washing with TTBS, membranes were incubated for 1-2 h at room temperature with suitable conjugated-HRP secondary antibody, and subjected to chemiluminescence detection using Western Blotting Luminol Reagent (Santa Cruz Biotechnology). Loading controls were carried out with an anti-beta-actin and anti-beta-tubulin antibodies (Sigma-Aldrich). Blots were captured using a digital imaging system ImageQuant LAS 4000 (Amersham GE Healthcare) and transferred to a digital image processing software to analyze (Adobe Photoshop CS2, version 9.0., Adobe Systems Inc., San Jose, Calif.).
# Signaling pathways targeted by cannabinoids in myelomatous cells. To get further insights into the mechanisms of cannabinoids-induced apoptosis, we assessed the expression profile of phosphorylated-JNK, -Erk1/2, -p38 MAPK and -Akt by Western blot.
# U266 cells [2] = experiment: Western blot time course of apoptotic proteins in U266 cells
# Method: as §1
# as §2, with “Loading controls were carried out with an anti-beta-actin and anti-beta-tubulin antibodies (Sigma-Aldrich). Blots were captured using a digital imaging system ImageQuant LAS 4000 (Amersham GE Healthcare) and transferred to a digital image processing software to analyze (Adobe Photoshop CS2, version 9.0., Adobe Systems Inc., San Jose, Calif.).” left out
# The antiproliferative effect of cannabinoids is mediated by apoptotic mechanisms. […] Next, we evaluated Casp-3 activation using an antibody that recognizes the active forms of Casp-3, this is, the 17 kDa- and 12 kDa-cleaved forms. […]
# HL60 cells = experiment: Western blot of signaling pathways (MAPKs, Akt) in HL60 cells
# Method: Protein analyses were performed by Western blot in several sets of assays: expression pattern of CBs-receptors in AML cell lines and primary cells, and time course after treatment with cannabinoids in AML cell lines.
# Cells were solubilized with ice-cold lysis buffer containing 2% ASB-14 (CalbioChem, San Diego, Calif., USA), 1% Nonidet P-40 (Ipegal®), 137 mM NaCl, 20 mM Tris-HCl pH 7.5 at 4° C. (all from Sigma-Aldrich), 2 mM Na3VO4, 20 mM NaF (New England BioLabs Inc., Ipswich, Mass., USA), 2 mM DTT (AppliChem, Darmstadt, Germany), protease inhibitor cocktail (Roche Diagnostics GmbH, Mannheim, Germany), and 10 ul Nuclease Mix (Amersham GE Healthcare, Uppsala, Sweden). Insoluble materials were removed by centrifugation at 13,000×g for 15 min at 4° C. Protein content was determined by Pierce® Microplate BCA Protein Assay kit-Reducing Agent Compatible (Thermo Fisher Scientific).
# Extracted proteins (15-25 ug/well) were separated by sodium dodecyl sulfate-polyacrylamide gel electrophoresis (SDS/PAGE) in pre-cast polyacrylamide gels AnykD (Bio-Rad Laboratories, Hercules, Calif., USA) under reducing and denaturing conditions. Electrophoretic run was performed at a constant current of 15 mA per gel in a Mini-Protean® Tetra Cell (Bio-Rad Laboratories) and were electrophoretically transferred onto PVDF membranes using Trans-Blot® Turbo™ System (Bio-Rad Laboratories). Blocking was performed with 2% bovine serum albumin [(BSA), Santa Cruz Biotechnology] in Tween-Tris buffer saline (TTBS). Membranes were incubated overnight at 4° C. with corresponding primary antibody in TTBS.
# Detection was performed using Western Blotting Luminol Reagent (Santa Cruz Biotechnology).
# Signaling pathways targeted by cannabinoids in leukemic cells. To get further insights into the mechanisms of cannabinoids-induced apoptosis, we assessed the expression profile of phosphorylated-JNK, -Erk1/2, -p38 MAPK and -Akt by Western blot.
smiles,measurement,setting,value
"CS(=O)(=O)O.Cc1c(C(=O)c2cccc3ccccc23)c2cccc3c2n1[C@H](CN1CCOCC1)CO3 [WIN-55, (R)-(+)-[2,3-dihydro-5-methyl-3-(4-morpholinylmethyl)-pyrrolo-[1,2,3]-1,4-benzoxazin-6-yl]-1-naphthalenylmethanone mesylate]",p-Akt at early time points,U266 cells [1]; U266,significant up-regulation
same,p-Akt expression levels at later times,U266 cells [1]; U266,sharp decline
same,"total Akt-expression, first 6 hours of exposure",U266 cells [1]; U266,remained unchanged
same,p-JNK,"U266 cells [1]; U266, WIN-55 50 uM",slightly up-regulated
same,"up-regulation of p-Erk1/2, compared with the slight up-regulation of p-JNK","U266 cells [1]; U266, WIN-55 50 uM",to a lesser extent
same,p-p38 MAPK,"U266 cells [1]; U266, time-dependent",moderately downregulated
same,time after exposure at which the 89 kDa PARP fragment became detectable,U266 cells [2]; U266,2 h
same,expression of the two active-cleaved forms of Casp-3 (17 kDa and 12 kDa),"U266 cells [2]; U266, time course",increased over time
same,89 kDa fragment of PARP,"U266 cells [2]; U266, time course 0-24 h",increase
same,full-length PARP,"U266 cells [2]; U266, time course 0-24 h",decrease
same,p-Erk1/2,"HL60 cells; HL60, WIN-55 50 uM",slightly up-regulated
same,p-Akt,"HL60 cells; HL60, time-dependent",significantly downregulated
same,p-p38 MAPK,"HL60 cells; HL60, time-dependent",moderately downregulated
